Measured values published in US20220380430A1, “Non-Transgenic Functional Rescue of Neuropeptides” (Worcester Polytechnic Institute, priority 2021, published 2022).
Entries after “also recorded” stand apart in the source; their conditions may differ. No end group written: not given here.

How the values were obtained:
FRPR-16 = molecular target: T1, FRPR-16 (Caenorhabditis elegans, UniProt Q21957); test: In vitro GPCR activation assay (CHO-K1 cells, aequorin, human Gα16), FRPR-16; type: cell-based, C. elegans; conditions: calcium/aequorin luminescence in transfected CHO-K1 cells
T1 sequence (Q21957 1-340): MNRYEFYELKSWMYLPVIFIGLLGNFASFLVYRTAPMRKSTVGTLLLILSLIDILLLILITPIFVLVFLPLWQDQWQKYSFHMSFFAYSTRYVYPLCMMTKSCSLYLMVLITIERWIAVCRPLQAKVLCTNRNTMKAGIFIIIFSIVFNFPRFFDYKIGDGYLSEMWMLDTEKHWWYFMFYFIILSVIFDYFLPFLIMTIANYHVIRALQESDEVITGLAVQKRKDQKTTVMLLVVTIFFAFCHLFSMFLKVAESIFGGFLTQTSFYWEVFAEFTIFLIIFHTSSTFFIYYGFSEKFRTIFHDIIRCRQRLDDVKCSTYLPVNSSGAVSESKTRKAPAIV
Protocol: (§1) The GPCR activation assay was performed as previously described Van Sinay, E. et al. Proc. Natl Acad. Sci. USA 114, E4065-e4074 (2017) and Peymen, K. et al. PLoS Genet. 15, e1007945 (2019). Briefly, npr-10 and frpr-16 cDNAs were cloned into the pcDNA3.1 TOPO expression vector (Thermo Fisher Scientific). A CHO-K1 cell line (PerkinElmer, ES-000-A24) stably expressing apo-aequorin targeted to the mitochondria (mtAEQ) and human Gα16 was transiently transfected with the receptor cDNA construct or the empty pcDNA3.1 vector using Lipofectamine LTX and Plus reagent (Thermo Fisher Scientific). Cells were shifted to 28° C. one day later and allowed to incubate for 24 h. On the day of the assay, cells were collected in BSA medium (DMEM/Ham's F12 with 15 mM HEPES, without phenol red, 0.1% BSA) and loaded with […] coelenterazine h (Thermo Fisher Scientific) for 4 h at room temperature. The incubated cells were then added to synthetic peptides dissolved in DMEM/BSA, and luminescence was measured for 30 s at […] using a Mithras LB940 (Berthold Technologies) or MicroBeta LumiJet luminometer (PerkinElmer). After 30 s of readout, 0.1% triton X-100 was added to lyse the cells, resulting in a maximal calcium response that was measured for 10 s. After initial screening, concentration-response curves were constructed for HPLC-purified FLP-3 peptides by subjecting the transfected cells to each peptide in a concentration range from 1 pM to 10 μM. Cells transfected with an empty vector were used as a negative control. Assays were performed in triplicate on at least two independent days. Concentration-response curves were fitted using Prism v. 7 (nonlinear regression analysis with a sigmoidal concentration-response equation).

flp-3 lof males [1] = test: Single worm attraction assay (SWAA) to ascr #8 after FLP-3 peptide rescue-by-feeding; type: in vivo, C. elegans; conditions: flp-3 lof males raised on peptide; in words
Protocol: The outer forty wells of a 48-well suspension culture plate (Olympus Plastics, Cat #: 25-103) were seeded with 200 μL of standard NGM agar. To prepare the plates for the assay, they were acclimated to room temperature, at which point each well was seeded with 65 μL of OP50 E. coli. The assay plates were then transferred to a 37° C. incubator with the lid tilted for 4 h to allow the bacterial culture to dry on the agar. Once the bacterial culture dried, the lid was replaced the plate was stored at 20° C. until used in the assay. Fifty to sixty L4 worms were segregated by sex and stored at 20° C. for 5 h to overnight to be assayed as young adults. 0.8 μL of either vehicle control or ascaroside #8 was placed in the center of the well corresponding to that condition within the quadrant being tested, following a random block design (FIG. 11A). A single worm was placed in each of the 10 wells to be assayed, and the plate was transferred to a light source and camera and recorded for 15 m. This process was repeated for all four quadrants. Each strain and sex were assayed over five plates assayed on at least three different days. Raw dwell time values were calculated by subtracting the time a worm exited the cue (center of the well in spatial controls), from the time it entered, as in the SRA. This was determined per visit, and the average dwell time was calculated for each animal in the quadrant. Averages of the four-quadrant means were determined per plate, and a minimum of five plates were assayed per strain/condition. The mean raw dwell time across five plates was calculated and used for statistical analyses and graphical display. The average dwell time in the ascaroside was divided by the average dwell time within the vehicle control per plate to generate a fold-change. To transform the data, the log of this fold-change was taken, and the average log(fold-change) was used for statistical analyses and graphical display. […]

NPR-10B = molecular target: T2, NPR-10B (Caenorhabditis elegans, UniProt Q6EUU1); test: In vitro GPCR activation assay (CHO-K1 cells, aequorin, human Gα16), NPR-10B; type: cell-based, C. elegans; conditions: title: NPR-10B; calcium/aequorin luminescence in transfected CHO-K1 cells
T2 sequence (Q6EUU1 1-362): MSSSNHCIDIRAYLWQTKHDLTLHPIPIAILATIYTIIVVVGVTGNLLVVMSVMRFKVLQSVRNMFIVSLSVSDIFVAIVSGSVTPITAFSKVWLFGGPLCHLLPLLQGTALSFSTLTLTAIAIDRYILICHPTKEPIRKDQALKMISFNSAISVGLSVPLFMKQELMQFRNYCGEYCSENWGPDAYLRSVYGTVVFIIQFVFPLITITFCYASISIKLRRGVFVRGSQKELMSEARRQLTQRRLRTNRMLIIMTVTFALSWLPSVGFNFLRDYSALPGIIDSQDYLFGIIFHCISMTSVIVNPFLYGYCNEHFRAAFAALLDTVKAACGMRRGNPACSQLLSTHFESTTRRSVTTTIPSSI
Protocol: Using Chinese hamster ovarian (CHO) cell cultures stably expressing the promiscuous G protein, Gα16, and the calcium reporter, aequorin, it was observed that both isoforms of NPR-10 are activated by seven of the ten FLP-3 peptides, with half-maximal effective concentrations (EC50) in the nM range (FIG. 14A-FIG. 14H, Table V). […] This peptide contains an R-to-K mutation within the C-terminal motif, which may explain the lack of receptor activation.
as §1

flp-3 lof males [2] = test: Drop avoidance assay to ascr #8 after FLP-3 peptide rescue-by-feeding; type: in vivo, C. elegans; conditions: flp-3 lof males raised on peptide; 1 μM ascr #8; in words
Protocol: To identify which FLP-3 peptides are required for male avoidance of ascr #8, a peptide feeding approach https://www.nature.com/articles/s42003-021-02547-7-ref-CR59 was adopted, similar to RNAi feeding (FIG. 16A). Using Gateway Cloning technology, FLP-3 peptide coding sequences were inserted into a bacterial expression vector. As a control, first the FLP-3 peptides were tested that are still encoded in the ok3625 allele which are insufficient to drive the proper ascr #8 response in vivo: FLP-3-1 (SPLGTMRFamide) (SEQ ID NO: 10) and FLP-3-4 (NPLGTMRFamide) (SEQ ID NO: 11). Then flp-3 lof animals were reared on lawns of bacteria expressing the rescue constructs, and their progeny were assayed for avoidance (FIG. 16B-FIG. 16D).
Assays were performed as described previously in Chute, C. D. & Srinivasan, J. Semin. Cell Dev. Biol. 33, 18-24 (2014); Chute, C. D. et al. Nat. Commun. 10, 3186 (2019); and Hilliard, M. A. et al., EMBO J. 23, 1101-1111 (2004). Fifty to sixty L4 worms were segregated by sex and stored at 20° C. for 5 h to overnight to be assayed as young adults. One to four hours prior to the assay, the lids of unseeded plates were tilted to allow any excess moisture to evaporate off the plates. At the time of the assay, 10 or more animals were transferred onto each of the dried, unseeded plates. A drop of either water or 1 μM ascr #8 was placed on the tail of forward moving animals, and their response was scored as either an avoidance response, or no response. The total number of avoidances was divided by the total number of drops to generate an avoidance index for that plate. This was repeated for at least 10 plates over at least three different days.
SCRAMBLE control or FLP-3 peptide constructs were grown overnight in LB media containing […] ampicillin at 37° C. and diluted to an OD600 of 1.0 prior to seeding on NGM plates containing […] ampicillin and 1 mM IPTG. The 75 μL lawn was left to dry and grow overnight at room temperature before three L4 animals were placed on the plates. Males were selected for testing in the same manner as described above but were isolated onto plates also seeded with the same peptide on which they had been reared. Animals were then assayed using either the avoidance assay or single worm assay.

ins-6 lof worms = test: NaCl chemotaxis assay after rescue-by-feeding; type: in vivo, C. elegans; conditions: 750 mM NaCl, in words
Protocol: All animals were maintained on bacterial lawns of OP50 E. coli, at 20° C., on NGM agar plates until the start of experiments. Mutant or control animals were transferred onto lawns of DH5α E. coli expressing either scramble peptide or the rescue peptide-of-interest on NGM plates containing […] AMP and 1 mM IPTG. Animals were reared on the peptide-expressing lawns for at least 48 hours at 20° C. before assaying for rescue of mutant phenotype at the appropriate developmental stage.
A salt chemotaxis assay was performed as previously described in Leinwand, S. G. & Chalasani, S. H. Nature neuroscience 16, 1461-1467 (2013); Bargmann, C. I. & Horvitz, H. R. Neuron 7, 729-742 (1991) to test the functionality of ins-6 after rescue-by-feeding. Wild-type (N2) and ins-6 worms were fed either scramble or INS-6 peptide passing 4-6 L4 larval onto an NGM plate containing […] AMP and 1 mM IPTG with 75 μL of peptide OD600=1.0. These worms were grown at 20° C. for about 4 days until the progeny of the initial L4 worms were young adults.
The day prior to testing, a thin, 10 mL layer of agar was added to 10 cm petri dishes to generate a 10 cm Chemotaxis Plates (5 mM KPO4 (pH 6.0), 1 μM MgSO4, 1 μM CaCl2), 20 g/L agar, and 8 g/L Difco Nutrient Broth). To prepare the “high salt” plates, 750 mM NaCl was added prior to plate pouring. The high salt plate were stored at 4° C. for up to one month, while the Chemotaxis Plates were made one day prior to testing. To create the high and low salt plugs, the back end of a Pasteur pipette was used to punch a 5 mm plug out of each plate. These 2 plugs were placed on opposite edges of the plate. A 10 mm radius was be drawn around the location of the plugs (FIG. 1). Plates were stored, lightly covered, overnight at room temperature (˜20° C., <40% humidity). […]
Young adult hermaphrodites are tested in the Chemotaxis Assay with no more than three replicates per day, over a minimum of three days, with 100-200 worms/assay plate. The […] Chemotaxis Index (CI) was calculated as follows: […]

EC50 (FRPR-16) | EC50 (NPR-10B) | Substance | rescue of attraction to ascr #8 (dwell time, log(fold-change)) (flp-3 lof males [1]) | rescue of avoidance phenotype to ascr #8 (Avoidance Index) (flp-3 lof males [2]) | rescue of NaCl chemotaxis (ins-6 lof worms; ins-6 lof worms fed peptide) | chemotaxis on overexpression by feeding (ins-6 lof worms; wild-type animals fed INS-6)
31.7 nM | 366 nM | TPLGTMRF-NH2 [FLP-3-2, TPLGTMRFamide] | not able to restore the animal's ability to be attracted to ascr #8; also recorded: seems to make the animals less attracted to the cue | able to abolish the avoidance phenotype; also recorded: undo the Avoidance phenotype associated with the flp-3 mutation |  | 
 |  | VPAPGETRACGRKLISLVMAVCGDLCNPQEGKDIATECCGNQCSDDYIRSACCP-NH2 (cysteine pairing not given here) [INS-6] |  |  | complete rescue of NaCl chemotaxis; also recorded: restores the Chemotaxis Index at a level similar to the canonical transgenic rescue; also recorded: complete restoration of attraction to high salt concentration | does not result in changes in attraction towards 750 mM NaCl; also recorded: does not affect chemotaxis in wild type animals; also recorded: slight defects in CI towards high salt
88.3 nM | 760 nM | NPENDTPFGTMRF-NH2 [FLP-3-9, NPENDTPFGTMRFamide] | full rescue of their ability to be attracted to the cue; also recorded: restores the attraction to wild-type | lack of avoidance to ascr #8; also recorded: undo the Avoidance phenotype associated with the flp-3 mutation |  | 
